The text below walks through data of ChEMBL document CHEMBL1135331, “Synthesis and characterization of a new RXR agonist based on the 6-tert-butyl-1,1-dimethylindanyl structure” (Bioorg Med Chem Lett, 2002).

This experiment deals with T1, Retinoic acid receptor RXR-alpha (Homo sapiens, UniProt P19793).
T1 sequence (P19793 whole entry): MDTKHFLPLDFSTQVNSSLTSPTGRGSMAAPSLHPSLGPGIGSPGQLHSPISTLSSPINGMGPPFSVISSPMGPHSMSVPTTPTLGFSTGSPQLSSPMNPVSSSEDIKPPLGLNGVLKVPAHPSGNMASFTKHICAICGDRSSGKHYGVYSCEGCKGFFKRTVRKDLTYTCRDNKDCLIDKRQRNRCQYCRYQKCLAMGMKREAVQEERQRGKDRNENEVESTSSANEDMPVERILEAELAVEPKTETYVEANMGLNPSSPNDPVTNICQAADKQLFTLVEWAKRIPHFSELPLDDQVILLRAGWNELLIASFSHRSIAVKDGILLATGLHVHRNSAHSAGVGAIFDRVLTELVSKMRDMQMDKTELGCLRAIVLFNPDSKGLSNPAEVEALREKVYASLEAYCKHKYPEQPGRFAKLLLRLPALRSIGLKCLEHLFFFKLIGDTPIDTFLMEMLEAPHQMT
Put plainly: Dissociation constant for binding to Retinoic acid receptor RXR-alpha.

pKd: −log10 of the molar value.

As to `C=C(/C=C/C=C/C(=O)O)c1cc(C(C)(C)C)cc2c1CCC2(C)C`, the pKd (as a rule, the negative decadic logarithm of the Kd, by convention in mol/L) is 6.66.
